Measured values from patent EP1568690A1, “The use of carbocyclic and heterocyclic substituted semicarbazones and thiosemicarbazones as sodium channel blockers” (Euro-Celtique S.A., priority 1997, dated 1998).
Where two headings read alike, the source gives them in different places.

What was measured:
[1] = tested on: maximal electroshock-induced seizures (MES); test: Maximal electroshock-induced seizure (MES) test; assay type: in vivo; conditions: mice; for MES (ED50 mg/kg): 30 min; for ED50: Mus musculus, po, 0.5 h
Protocol: Mice were restrained by gripping the loose skin on their dorsal surface and saline-coated corneal electrodes were held lightly against the two cornea. […] A tonic seizure was defined as a hindlimb extension in excess of 90 degrees from plane of the body.
4-(3,4-Methylenedioxyphenoxy)benzaldehyde semicarbazone was administered orally to mice 30 min before the test procedure. […]

[2] = tested on: voltage-sensitive Na^+ channels; test: Electrophysiological assay: whole-cell patch-clamp of Na^+ currents in acutely dissociated hippocampal neurons; assay type: cell-based, rat
Protocol: Cell preparation: Acute cultures of rat hippocampal neurons were prepared daily using a modification of procedures described previously (Kuo and Bean, Mol. Pharm. 46:716-725 (1994)). Briefly, hippocampi were isolated from 3-11 day old rat pup brains (Sprague-Dawley; Charles River) and were sectioned, by hand, into 0.5 - 1 mm thick transverse slices (Whittemore and Koerner, Eur. J. Pharm. 192:435-438 (1991)). Slices were incubated for at least 30 min at room temperature (20 - 24 °C) in an oxygenated medium (124 mM NaCl, 3.3 mM KCl, 2.4 mM MgSO4, 2.5 mM CaCl2, 1.2 mM KH2PO4, 26 mM NaHCO3, pH = 7.4) continuously bubbled with 5% CO2 / 95 % O2. […]
Patch-clamp recordings of voltage-sensitive Na^+ currents: Whole-cell voltage-clamp recordings were made using conventional patch-clamp technique (Hamill et al., Pfluegers Arch. 391:85-100 (1981)) with an Axopatch 200A amplifier (Axon Instruments, Foster City, CA). […] Currents were recorded at room temperature (22-25°C), filtered at 5 kHz with 4-pole Bessel filter, digitized at 20-50-µs intervals, and stored using Digidata 1200 analog/digital interface with Pclamp6/Clampex software (Axon Instruments). […] The inhibitory potency of drugs was assessed by measuring reductions in the peak amplitude of Na^+ currents induced by increasing concentrations of compounds tested. […]

Na^+ channel Site 1 = assay type: binding; conditions: [^3H] saxitoxin, rat forebrain membranes
Na^+ channel Site 2 = assay type: binding; conditions: [^3H] batrachotoxin, rat forebrain membranes
formalin test in mice = test: Formalin test (antinociceptive activity, time licking/biting injected paw); assay type: in vivo; conditions: Mus musculus
Protocol: Analgesic activity of 4-(4-fluorophenoxy)benzaldehyde semicarbazone was assessed in the formalin test. The method of Hunskaar, et al., J. Neurosci. Method 14:69-76 (1985), was used with some modifications as described in the following.
Mice were placed in Plexiglas jars for at least 1 h to accommodate to experimental conditions. Following the accommodation period, mice were weighed and injected with 4-(4-Fluorophenoxy)benzaldehyde semicarbazone by i.p. or p.o. administration. Control mice were injected with saline (10 ml/kg). Fifteen min (i.p.) or 30 min (p.o.) following 4-(4-fluorophenoxy)benzaldehyde semicarbazone administration mice were injected with formalin ([…] of 5% formaldehyde solution in saline) into the dorsal surface of the right hand paw. Mice were immediately transferred to the Plexiglas jars and the amount of time that each mouse spent licking and/or biting the injected paw was recorded for every 5-min period over the 1 h observation period. The data presented here are at 0-5 min (early phase) and from 5-60 min (late phase) following formalin injections. The late phase of the formalin test is the average of eleven 5-min periods.
The compound has a potency of ED50 about 5-10 mg/kg by both routes of administration.

[3] = determined as described in example 38
[4] = determined as described in example 38, read-out: MES (ED50 mg/kg)

“4-(4-fluorophenyl)benzaldehyde 2'-methylsemicarbazone” was tested, and the “MES (ED50 mg/kg)” value [1, 3] was 1.5 mg/kg.

Molecule `CN(NCc1ccc(Oc2ccc(F)cc2)cc1)C(N)=O` [2'-methyl-4-(4-flourophenoxy)phenylmethylsemicarbazide] has an ED50 [1, 4] of 3.2 mg/kg.

`NC(=O)NN=Cc1ccc(-c2ccc(F)cc2)c(F)c1` [3-fluoro-4-(4-fluorophenyl)benzaldehyde semicarbazone] gave an ED50 [1, 4] of 3 mg/kg.

Work on `NC(=O)NN=Cc1ccc(Oc2ccc3c(c2)OCO3)cc1` [4-(3,4-methylenedioxyphenoxy)benzaldehyde semicarbazone] yielded an ED50 ([1]; read-out: ED50 (the dose provided protection of 50% of animals), administered orally 30 min before the test) of 5.3 mg/kg and an ED50 [1, 4] of 3.4 mg/kg.

With `CN(N=Cc1ccc(Oc2ccc(F)cc2)c(F)c1)C(N)=O` [4-(4-Fluorophenoxy)-3-fluorobenzaldehyde 2'-methylsemicarbazone] the ED50 [1, 4] was 0.9 mg/kg.

In the case of `CCCCOc1ccc(Oc2ccc(C=NNC(N)=O)cc2)cc1` [4-(4-butoxyphenoxy)benzaldehyde semicarbazone], the ED50 [1, 4] is reported as 14.9 mg/kg.

`NC(=O)NN=Cc1ccc(Oc2ccc(F)cc2)cc1` [4-(4-fluorophenoxy)benzaldehyde semicarbazone] was tested, and the “effect on Na^+ currents” value ([2]; concentrations between 0.1 - 10 µM, holding membrane voltage of -100 mV) was “very little effect”, the Kd ([2]; for inactivated Na^+ channels, read-out: apparent antagonist dissociation constant (Kd)) was about 0.6 µM and the IC50 (Na^+ channel Site 1) was over 100 µM. For the same molecule, the IC50 (Na^+ channel Site 2) was 22 µM, the ED50 (formalin test in mice; ip, 0.25 h, i.p., formalin 15 min after administration) was 5 to 10 mg/kg and the ED50 (formalin test in mice; po, 0.5 h, p.o., formalin 30 min after administration) was 5 to 10 mg/kg. It also gave an ED50 [1, 4] of 1.6 mg/kg.

For `NC(=O)NNCc1ccc(Oc2ccc(F)cc2)cc1` [4-(4-fluorophenoxy)phenylmethylsemicarbazide], the “MES (ED50 mg/kg)” value [1, 3] was 4.2 mg/kg.

Molecule `NC(=O)NN=Cc1ccc(Oc2ccc3c(c2)CCC3)cc1` [4-(5-indanoxy)benzaldehyde semicarbazone, 4-(5-Indanoxy)benzaldehyde semicarbazone] has an ED50 [1, 4] of 1.7 mg/kg.

With `NC(=O)NN=Cc1ccc(OC2CCCCCC2)cc1` [4-cycloheptoxybenzaldehyde semicabazone, 4-Cycloheptyloxybenzaldehyde semicarbazone] the ED50 [1, 4] was 3.2 mg/kg.

Work on `CCN(CC)CC(=O)Nc1c(C)cccc1C` [Lidocaine, reference compound] yielded an IC50 (Na^+ channel Site 1) of over 100 µM and an IC50 (Na^+ channel Site 2) of 29.9 µM.
